In the assay the target is catalytic domain of human Bub1 (amino acids 704-1085) (Homo sapiens (Human), UniProt O43683). The assay can be described thus: Bub1 kinase assay (TR-FRET). The assay is classed as biochemical. As to conditions: 10 μM ATP, 1 μM peptide substrate; read-out: Biological Assay 1: Bub1 kinase assay median IC50. The procedure: To this end, 100-fold concentrated compound solutions (in DMSO) were previously prepared by serial dilution (1:3.4) of 2 mM stocks in a clear low volume 384-well source microtiter plate (Greiner Bio-One, Frickenhausen, Germany), from which 50 nl of compounds were transferred into a black low volume test microtiter plate from the same supplier. […] The resulting mixture (5 μl final volume) was incubated at 22° C. during 60 min., and the reaction was stopped by the addition of 5 μl of an aqueous EDTA-solution (50 mM EDTA, in 100 mM HEPES pH 7.5 and 0.2% (w/v) bovine serum albumin) which also contained the TR-FRET detection reagents (0.2 μM streptavidin-XL665 [Cisbio Bioassays, Codolet, France] and 1 nM anti-phosho-Serine antibody [Merck Millipore, cat. #35-001] and 0.4 nM LANCE EU-W1024 labeled anti-mouse IgG antibody [Perkin-Elmer, product no. AD0077, alternatively a Terbium-cryptate-labeled anti-mouse IgG antibody from Cisbio Bioassays can be used]). The stopped reaction mixture was further incubated 1 h at 22° C. in order to allow the formation of complexes between peptides and detection reagents. Subsequently, the amount of product was evaluated by measurement of the resonance energy transfer from the Eu-chelate-antlbody complex recognizing the Phosphoserlne residue to the streptavidin-XL665 bound to the biotin moiety of the peptide. […] IC50 values were calculated by fitting the normalized inhibition data to a 4-parameter logistic equation (Minimum, Maximum, IC50, Hill; Y=Max+(Min−Max)/(1+(X/IC50)Hill)) using a Bayer-proprietary analysis software.
Sequence of catalytic domain of human Bub1 (amino acids 704-1085) (O43683 704-1085): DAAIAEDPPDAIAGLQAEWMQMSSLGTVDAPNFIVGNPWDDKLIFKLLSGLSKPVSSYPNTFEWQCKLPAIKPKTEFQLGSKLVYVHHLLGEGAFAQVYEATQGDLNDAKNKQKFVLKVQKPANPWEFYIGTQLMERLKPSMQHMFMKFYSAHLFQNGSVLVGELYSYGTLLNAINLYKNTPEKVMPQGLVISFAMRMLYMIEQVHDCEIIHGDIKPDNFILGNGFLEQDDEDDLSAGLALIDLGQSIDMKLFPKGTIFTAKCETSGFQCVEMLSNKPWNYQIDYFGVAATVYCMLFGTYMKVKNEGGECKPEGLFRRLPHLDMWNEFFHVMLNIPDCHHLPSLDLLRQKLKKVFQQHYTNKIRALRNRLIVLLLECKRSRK
On the technique in general: In TR-FRET formats the signal depends on donor and acceptor labels being close together.

As a reminder, the IC50 is the point on the concentration scale where inhibition reaches its midpoint. As to `COc1cnc(-c2nn(Cc3cccc(-n4cccc4)c3)c3ccccc23)nc1Nc1ccncc1` [Example 2-1-3, 5-methoxy-N-(pyridin-4-yl)-2-{1-[3-(1H-pyrrol-1-yl)benzyl]-1H-indazol-3-yl}pyrimidin-4-amine], the IC50 worked out at 120 nM.

In the case of `COc1cnc(-c2nn(Cc3cccc(-c4noc(C)n4)c3)c3ccccc23)nc1Nc1ccncc1` [Example 2-2-3, 5-methoxy-2-{1-[3-(5-methyl-1,2,4-oxadiazol-3-yl)benzyl]-1H-indazol-3-yl}-N-(pyridin-4-yl)pyrimidin-4-amine], the IC50 was 25 nM.

Take `COc1cnc(-c2nn(Cc3c(F)ccc(OC)c3F)c3ccccc23)nc1N(Cc1c(F)ccc(OC)c1F)c1ccncc1` [Example 2-4-2, N-(2,6-difluoro-3-methoxybenzyl)-2-[1-(2,6-difluoro-3-methoxybenzyl)-1H-indazol-3-yl]-5-methoxy-N-(pyridin-4-yl)pyrimidin-4-amine]: the IC50 came out at 3500 nM.

`CCOc1cc(F)c(CN(c2ccncc2)c2nc(-c3nn(Cc4c(F)cc(OCC)cc4F)c4ccccc34)ncc2OC)c(F)c1` [Example 2-5-2, N-(4-ethoxy-2,6-difluorobenzyl)-2-[1-(4-ethoxy-2,6-difluorobenzyl)-1H-indazol-3-yl]-5-methoxy-N-(pyridin-4-yl)pyrimidin-4-amine]: the IC50 is 9300 nM.

Consider `COc1cnc(-c2nn(Cc3c(F)cccc3F)c3ccccc23)nc1N(Cc1c(F)cccc1F)c1ccncc1` [Example 2-7-2, N-(2,6-difluorobenzyl)-2-[1-(2,6-difluorobenzyl)-1H-indazol-3-yl]-5-methoxy-N-(pyridin-4-yl)pyrimidin-4-amine], for which the IC50 came out at 210 nM.

`COc1cnc(-c2nn(Cc3ccc(C)c(F)c3F)c3ccccc23)nc1N(Cc1ccc(C)c(F)c1F)c1ccncc1` [Example 2-8-2, N-(2,3-difluoro-4-methylbenzyl)-2-[1-(2,3-difluoro-4-methylbenzyl)-1H-indazol-3-yl]-5-methoxy-N-(pyridin-4-yl)pyrimidin-4-amine]: the IC50 worked out at 290 nM.

On to `COc1cnc(-c2nn(Cc3c(Cl)cccc3Cl)c3ccccc23)nc1N(Cc1c(Cl)cccc1Cl)c1ccncc1` [Example 2-9-2, N-(2,6-dichlorobenzyl)-2-[1-(2,6-dichlorobenzyl)-1H-indazol-3-yl]-5-methoxy-N-(pyridin-4-yl)pyrimidin-4-amine], for which the IC50 was 240 nM.

As to `COc1cnc(-c2nn(Cc3ccc(SC(F)(F)F)cc3)c3ccccc23)nc1Nc1ccncc1` [Example 2-9-3, 5-methoxy-N-(pyridin-4-yl)-2-(1-{4-[(trifluoromethyl)sulfanyl]benzyl}-1H-indazol-3-yl)pyrimidin-4-amine], the IC50 is 20000 nM.

In the case of `COc1cnc(-c2nn(Cc3ccccc3Cl)c3ccccc23)nc1N(Cc1ccccc1Cl)c1ccncc1` [Example 2-10-2, N-(2-chlorobenzyl)-2-[1-(2-chlorobenzyl)-1H-indazol-3-yl]-5-methoxy-N-(pyridin-4-yl)pyrimidin-4-amine], the IC50 came to 1200 nM.

Turning to `CCOc1ccc(CN(c2ccncc2)c2nc(-c3nn(Cc4ccc(OCC)c(F)c4F)c4ccccc34)ncc2OC)c(F)c1F` [Example 2-14-2, N-(4-ethoxy-2,3-difluorobenzyl)-2-[1-(4-ethoxy-2,3-difluorobenzyl)-1H-indazol-3-yl]-5-methoxy-N-(pyridin-4-yl)pyrimidin-4-amine], the IC50 worked out at 730 nM.

Regarding `COc1cnc(-c2nn(Cc3ccccc3Br)c3ccccc23)nc1N(Cc1ccccc1Br)c1ccncc1` [Example 2-21-2, N-(2-bromobenzyl)-2-[1-(2-bromobenzyl)-1H-indazol-3-yl]-5-methoxy-N-(pyridin-4-yl)pyrimidin-4-amine], the IC50 amounted to 20000 nM.

For the compound `COc1cnc(-c2nn(Cc3ccc(CC(=O)O)cc3F)c3ccccc23)nc1Nc1ccncc1` [Example 2-22-1, [3-fluoro-4-({3-[5-methoxy-4-(pyridin-4-ylamino)pyrimidin-2-yl]-1H-indazol-1-yl}methyl)phenyl]acetic acid], the 50% inhibitory concentration (IC50) is 3200 nM.

`COc1cnc(-c2nn(Cc3c(F)cc(OC(F)F)cc3F)c3ccccc23)nc1N(Cc1c(F)cc(OC(F)F)cc1F)c1ccncc1` [Example 2-39-2, N-[4-(difluoromethoxy)-2,6-difluorobenzyl]-2-{1-[4-(difluoromethoxy)-2,6-difluorobenzyl]-1H-indazol-3-yl}-5-methoxy-N-(pyridin-4-yl)pyrimidin-4-amine]: the IC50 stood at 6900 nM.

`COc1cnc(-c2nn(Cc3c(Cl)ccc([N+](=O)[O-])c3Cl)c3ccccc23)nc1Nc1ccncc1` [Example 2-44-1, 2-[1-(2,6-dichloro-3-nitrobenzyl)-1H-indazol-3-yl]-5-methoxy-N-(pyridin-4-yl)pyrimidin-4-amine]: the half-maximal inhibitory concentration (IC50) worked out at 41 nM.

Consider `COc1cnc(-c2nn(Cc3cccc(C#N)c3)c3ccccc23)nc1Nc1ccncc1` [Example 2-45-1, 3-({3-[5-methoxy-4-(pyridin-4-ylamino)pyrimidin-2-yl]-1H-indazol-1-yl}methyl)benzonitrile], for which the IC50 turned out to be 110 nM.

On to `COc1cc(C(F)(F)F)ccc1Cn1nc(-c2ncc(OC)c(Nc3ccncc3)n2)c2ccccc21` [Example 2-47-1, 5-methoxy-2-{1-[2-methoxy-4-(trifluoromethyl)benzyl]-1H-indazol-3-yl}-N-(pyridin-4-yl)pyrimidin-4-amine], for which the IC50 was determined as 2400 nM.

As for `COc1cnc(-c2nn(Cc3c(F)cccc3OC)c3ccccc23)nc1Nc1ccncc1` [Example 2-49-1, 2-[1-(2-fluoro-6-methoxybenzyl)-1H-indazol-3-yl]-5-methoxy-N-(pyridin-4-yl)pyrimidin-4-amine], the IC50 turned out to be 1500 nM.

As for `OCC1(COc2cnc(-c3nn(Cc4ccccc4F)c4ccccc34)nc2N(CC2(CO)COC2)c2ccncc2)COC1` [Example 4-2-2, (3-{[(2-[1-(2-fluorobenzyl)-1H-indazol-3-yl]-5-{[3-(hydroxymethyl)oxetan-3-yl]methoxy}pyrimidin-4-yl)(pyridin-4-yl)amino]methyl}oxetan-3-yl)methanol], the IC50 stood at 430 nM.

As to `Fc1ccccc1Cn1nc(-c2ncc(OCCc3nnn[nH]3)c(N(CCc3nnn[nH]3)c3ccncc3)n2)c2ccccc21` [Example 4-5-2, 2-[1-(2-fluorobenzyl)-1H-indazol-3-yl]-N-(pyridin-4-yl)-5-[2-(1H-tetrazol-5-yl)ethoxy]-N-[2-(1H-tetrazol-5-yl)ethyl]pyrimidin-4-amine], the IC50 was 330 nM.

In the case of `CCOc1cc(F)c(Cn2nc(-c3ncc(OCC4CN(C(=O)OC(C)(C)C)CCO4)c(Nc4ccncc4)n3)c3ccccc32)c(F)c1` (stereo not drawn) [Example 4-11, tert-butyl 2-[({2-[1-(4-ethoxy-2,6-difluorobenzyl)-1H-indazol-3-yl]-4-(pyridin-4-ylamino)pyrimidin-5-yl}oxy)methyl] morpholine-4-carboxylate], the IC50 was found to be 24 nM.

On to `CCOc1cc(F)c(Cn2nc(-c3ncc(OC[C@@H]4CCC(=O)N4)c(Nc4ccncc4)n3)c3ccccc32)c(F)c1` [Example 4-18, formic acid - (5S)-5-[({2-[1-(4-ethoxy-2,6-difluorobenzyl)-1H-indazol-3-yl]-4-(pyridin-4-ylamino)pyrimidin-5-yl}oxy)methyl] pyrrolidin-2-one (1:1)], for which the IC50 was 12 nM.

Regarding `CC(C)(C)OC(=O)NCCOCCOc1cnc(-c2nn(Cc3ccccc3F)c3ccccc23)nc1Nc1ccncc1` [Example 4-20, tert-butyl {2-[2-({2-[1-(2-fluorobenzyl)-1H-indazol-3-yl]-4-(pyridin-4-ylamino)pyrimidin-5-yl}oxy)ethoxy]ethyl}carbamate], the IC50 was 210 nM.

`COc1cnc(-c2nn(Cc3ccc(C(C)(C)O)cc3Cl)c3ccccc23)nc1Nc1ccncc1` [Example 9-1, 2-[3-chloro-4-({3-[5-methoxy-4-(pyridin-4-ylamino)pyrimidin-2-yl]-1H-indazol-1-yl}methyl)phenyl]propan-2-ol]: the IC50 is 9.8 nM.

In the case of `COc1cnc(-c2nn(Cc3c(Cl)ccc(C(=O)O)c3Cl)c3ccccc23)nc1Nc1ccncc1` [Example 19-1, 2,4-dichloro-3-({3-[5-methoxy-4-(pyridin-4-ylamino)pyrimidin-2-yl]-1H-indazol-1-yl}methyl)benzoic acid], the half-maximal inhibitory concentration (IC50) is 20000 nM.

For `CNC(=O)c1cc(F)c(Cn2nc(-c3ncc(OC)c(Nc4ccncc4)n3)c3ccccc32)c(F)c1` [Example 20-6, 3,5-difluoro-4-({3-[5-methoxy-4-(pyridin-4-yla-mino)pyrimidin-2-yl]-1H-indazol-1-yl}methyl)-N-methylbenzamide], the IC50 worked out at 6700 nM.

Regarding `OCC1COc2cnc(-c3nn(Cc4ccccc4F)c4ccccc34)nc2N1c1ccncc1` (stereo not drawn) [Example 22-1, {2-[1-(2-fluorobenzyl)-1H-indazol-3-yl]-8-(pyridin-4-yl)-7,8-dihydro-6H-pyrimido[5,4-b][1,4]oxazin-7-yl}methanol], the IC50 was determined as 770 nM.

Take `COC(=O)c1cnccc1Nc1nc(-c2nn(Cc3ccccc3F)c3ccccc23)ncc1OC` [Example 24-2, methyl 4-({2-[1-(2-fluorobenzyl)-1H-indazol-3-yl]-5-methoxypyrimidin-4-yl}amino)pyridine-3-carboxylate]: the IC50 is 20000 nM.

The record behind these values is US10266548B2, “Substituted benzylindazoles for use as Bub1 kinase inhibitors in the treatment of hyperproliferative diseases” (Bayer Intellectual Property GmbH, priority 2011, dated 2019).
